Laboratory results published in BindingDB's records for doi:10.1016/j.ejmech.2021.113695 (Griffith University, 2021).

Assay: Inhibition of NS2B-NS3 intramolecular cleavage in Dengue virus 2 infected in LLC-MK2 cells assessed as inhibition of viral replication measured afer 48 hrs by ELISA

In the case of O=C1c2c(O)ccc([N+](=O)[O-])c2C(=O)c2c([N+](=O)[O-])ccc(O)c21, the EC50 is reported as 4.2 µM.
